# Assay results as given in paper PMC6723908, “OCTN2-Mediated Acetyl-L-Carnitine Transport in Human Pulmonary Epithelial Cells In Vitro” (Pharmaceutics, 2019).
# Target: T1, OCTN2 (Homo sapiens, UniProt O76082)
# T1 construct: gene SLC22A5
# T1 sequence (O76082 1-557): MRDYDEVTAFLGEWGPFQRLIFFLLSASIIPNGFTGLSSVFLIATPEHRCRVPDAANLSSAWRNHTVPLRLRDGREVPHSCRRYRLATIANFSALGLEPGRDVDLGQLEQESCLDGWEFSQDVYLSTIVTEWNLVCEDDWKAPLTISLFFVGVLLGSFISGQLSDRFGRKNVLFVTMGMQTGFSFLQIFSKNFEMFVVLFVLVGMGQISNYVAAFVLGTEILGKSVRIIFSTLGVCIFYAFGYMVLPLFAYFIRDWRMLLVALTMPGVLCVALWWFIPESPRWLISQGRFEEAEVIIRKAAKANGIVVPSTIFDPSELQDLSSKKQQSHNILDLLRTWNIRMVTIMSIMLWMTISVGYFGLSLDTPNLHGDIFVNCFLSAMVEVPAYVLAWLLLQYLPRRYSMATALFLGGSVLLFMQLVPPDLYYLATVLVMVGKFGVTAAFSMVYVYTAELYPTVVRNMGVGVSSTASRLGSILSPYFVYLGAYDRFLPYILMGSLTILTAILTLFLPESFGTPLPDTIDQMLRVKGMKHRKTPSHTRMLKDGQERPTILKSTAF
# Experiment: inhibition of [3H]-acetyl-L-carnitine uptake in ATI-like and A549 cells at […] (uptake reduced to […] in A549)
# Format: cell-based
# Conditions: read-out: % of control uptake at 500 μM
smiles,measurement,value
C[N+](C)(C)C[C@@H](O)CC(=O)[O-] [D-carnitine],remaining activity at 500 µM,25.8 ± 1.3%
